Source: patent US20220112175A1, “PYRIDAZINES HERBICIDAL COMPOUNDS” (SYNGENTA CROP PROTECTION AG, priority 2019, published 2022)

How the values were obtained:
Assay in all cases: Post-emergence efficacy, glasshouse pot test
Assay type in all cases: in vivo
[1] = system: Ipomoea hederacea (IPOHE); conditions: 312 h, Application rate 500 g/Ha, post-emergence spray, evaluated after 13 days, read-out: Post-emergence efficacy IPOHE (100=total damage to plant; 0=no damage to plant)
Description: (§1) Seeds of a variety of test species were sown in standard soil in pots. After cultivation for 14 days (post-emergence) under controlled conditions in a glasshouse (at 24/16° C., day/night; 14 hours light; 65% humidity), the plants were sprayed with an aqueous spray solution derived from the dissolution of the technical active ingredient formula (I) in a small amount of acetone and a special solvent and emulsifier mixture referred to as IF50 (11.12% Emulsogen EL360 TM+44.44% N-methylpyrrolidone+44.44% Dowanol DPM glycol ether), to create a 50 g/l solution which was then diluted to required concentration using 0.25% or 1% Empicol ESC70 (Sodium lauryl ether sulphate)+1% ammonium sulphate as diluent.
(§2) The test plants were then grown in a glasshouse under controlled conditions (at 24/16° C., day/night; 14 hours light; 65% humidity) and watered twice daily. After 13 days the test was evaluated (100=total damage to plant; 0=no damage to plant).
(§3) Ipomoea hederacea (IPOHE), Euphorbia heterophylla (EPHHL), Chenopodium album (CHEAL), Amaranthus palmeri (AMAPA), Lolium perenne (LOLPE), Digitaria sanguinalis (DIGSA), Eleusine indica (ELEIN), Echinochloa crus-galli (ECHCG), Setaria faberi (SETFA)

Setaria faberi (SETFA) = conditions: 312 h, Application rate 500 g/Ha, post-emergence spray, evaluated after 13 days, read-out: Post-emergence efficacy SETFA (100=total damage to plant; 0=no damage to plant)
Description: as §1, §2, §3

[2] = system: Digitaria sanguinalis (DIGSA); conditions: 312 h, Application rate 500 g/Ha, post-emergence spray, evaluated after 13 days, read-out: Post-emergence efficacy DIGSA (100=total damage to plant; 0=no damage to plant)
Description: as §1, §2, §3

[3] = system: Euphorbia heterophylla (EPHHL); conditions: 312 h, Application rate 500 g/Ha, post-emergence spray, evaluated after 13 days, read-out: Post-emergence efficacy EPHHL (100=total damage to plant; 0=no damage to plant)
Description: as §1, §2, §3

[4] = system: Chenopodium album (CHEAL); conditions: 312 h, Application rate 500 g/Ha, post-emergence spray, evaluated after 13 days, read-out: Post-emergence efficacy CHEAL (100=total damage to plant; 0=no damage to plant)
Description: as §1, §2, §3

Eleusine indica (ELEIN) = conditions: 312 h, Application rate 500 g/Ha, post-emergence spray, evaluated after 13 days, read-out: Post-emergence efficacy ELEIN (100=total damage to plant; 0=no damage to plant)
Description: as §1, §2, §3

[5] = system: Amaranthus palmeri (AMAPA); conditions: 312 h, Application rate 500 g/Ha, post-emergence spray, evaluated after 13 days, read-out: Post-emergence efficacy AMAPA (100=total damage to plant; 0=no damage to plant)
Description: as §1, §2, §3

Lolium perenne (LOLPE) = conditions: 312 h, Application rate 500 g/Ha, post-emergence spray, evaluated after 13 days, read-out: Post-emergence efficacy LOLPE (100=total damage to plant; 0=no damage to plant)
Description: as §1, §2, §3

[6] = system: Echinochloa crus-galli (ECHCG); conditions: 312 h, Application rate 500 g/Ha, post-emergence spray, evaluated after 13 days, read-out: Post-emergence efficacy ECHCG (100=total damage to plant; 0=no damage to plant)
Description: as §1, §2, §3

Row | Structure (SMILES) | pest or weed control at 500 g/ha [1] | pest or weed control at 500 g/ha (Setaria faberi (SETFA)) | pest or weed control at 500 g/ha [2] | pest or weed control at 500 g/ha [3] | pest or weed control at 500 g/ha [4] | pest or weed control at 500 g/ha (Eleusine indica (ELEIN)) | pest or weed control at 500 g/ha [5] | pest or weed control at 500 g/ha (Lolium perenne (LOLPE)) | pest or weed control at 500 g/ha [6]
1 | CC(NC(=O)CC[n+]1ccc(-c2nccs2)cn1)C(=O)O (stereo not drawn) [Compound A16] | 20% | 100% | 100% | 40% | 90% | 100% | 100% | 60% | 100%
2 | CC(NS(=O)(=O)CC[n+]1ccc(-c2ncsn2)cn1)C(=O)O (stereo not drawn) [Compound A22] | 50% | 100% | 100% | 20% | 50% | 100% | 100% | 60% | 80%
3 | Cn1cnc(-c2cc[n+](CC(=O)NCCS(=O)(=O)[O-])nc2)n1 [Compound A5, 2-[[2-[4-(1-methyl-1,2,4-triazol-3-yl)pyridazin-1-ium-1-yl]acetyl]amino]ethanesulfonate] | 20% | 90% | 90% | 60% | 80% | 60% | 90% | 50% | 100%
4 | CC(NC(=O)C[n+]1ccc(-c2ncsn2)cn1)C(=O)O (stereo not drawn) [Compound A19] | 50% | 90% | 80% | 90% | 90% | 80% | 100% | 40% | 80%
5 | CN(CC(=O)O)C(=O)C[n+]1ccc(-c2nccs2)cn1 [Compound A11] | 20% | 50% | 40% | 90% | 20% | 50% | 90% | 30% | 50%
6 | CC(C)(NC(=O)C[n+]1ccc(-c2nccs2)cn1)C(=O)O [Compound A9] | 20% | 40% | 40% | 80% | 50% | 70% | 100% | 30% | 30%
